Assay results taken from US20150051246A1 (priority 2013, published 2015).

How the values were obtained:
[1] = tested on: xylazine/ketamine induced α2-adrenergic receptor-mediated anesthesia; conditions: in vivo, 3 mg/kg
Description: Since emesis is a typical side-effect of PDE4 inhibitors the emetic potential of roflumilast and rolipram was investigated in parallel using the xylazine/ketamine induced α2-adrenergic receptor-mediated anesthesia test. The results confirmed that the two phosphodiesterase 4 inhibitors have different effects on emesis.

[2] = tested on: healthy adults; assay: EEG Event Related Potentials (P300, N400, P600) during VLT in healthy adults; format: in vivo, human; conditions: for ERP P600 amplitude (in words): 100 mcg, during VLT
Protocol: An electroencephalogram (EEG) cap was used to place a set of 32 EEG electrodes according to the international 10-20 system on the subjects. Event Related Potentials (ERPs) were extracted by averaging the responses within an epoch of 100 ms before and 1000 ms after stimulus onset covering P300, N400, and P600. Separate averages were made for correct and incorrect responses within a task and for different trial types. EEG measurements were done simultaneously with VLT testing. ERPs were calculated from the words that were called during immediate recall (encoding), and from the words that were recognized and from those that were not during the recognition condition at 45 minutes. The ERP components of P300, N400, and P600 were compared to examine whether the initial stimulus processing during the learning trials differs from word to word. Finally, ERPs to the old and new items during the recognition task were measured.
Statistical Data Analyses Human data was analyzed using IBM SPSS Statistics version 20. General Linear Models for repeated measures were applied with the placebo condition included as contrast. Statistical outcomes for Tests of Within-Subjects Effects and Tests of Within-Subjects Contrasts were regarded for immediate and delayed free recall scores and for the summed immediate recall score (i.e. immediate 1+immediate 2+immediate 3). The factor Treatment (4 levels; placebo, roflumilast 100 mcg, roflumilast 300 mcg and roflumilast 1000 mcg) was included as a within subjects factor. For the analysis of the EEG data, the factor Channel (5 levels; Fz, FCz, Cz, CPz, and Pz) was included as a second within subjects factor. Peak and latency values of three memory related ERP's were analysed; i.e. P300, N400 and P600. In case of significant findings (p<0.05) post-hoc t-tests were performed to reveal which of the five midline electrodes contributed to the effect

[3] = tested on: 60 to 80 years old subjects (Impaired Elderly and Healthy Elderly); assay: Verbal Learning Task (VLT) in 60 to 80 years old subjects, interim analysis; format: in vivo, human
Protocol: The study is conducted according to a double-blind, placebo-controlled, four-period cross-over design. Forty healthy subjects, both male and female within an age range of 60 to 80 years are planned to be included in the study in two groups: 1) 20 subjects with a memory performance between 1-2 Standard Deviation below the average for their age, gender, and educated level (Impaired Elderly) and 2) 20 subjects with age (±3 years), gender, and educational level matched (in order to speed up the study matching was stopped after the interim analysis) with an average memory performance between 0.5 Standard Deviation below and 0.5 Standard Deviation above from normative values (Healthy Elderly). Classification in terms of impaired or healthy elderly will be determined by a one-off testing of memory performance using the Rey Verbal Learning Task (Rey A; L'examen psychologique dans les cas d'encephalopathy traumatique 1958 Paris; Presses Universitaire de France; or Van der Elst et al; J Int Neuropsychol Soc 2005, 11 (3), pp 290-302) according to fully standardized procedures as applied in The Maastricht Aging Study (Jolles et al; Maastricht Aging Study; determinants of cognitive aging; Maastricht, The Netherlands, Neuropsych Publishers 1995). Normative data for each individual subject will be derived also from the Maastricht Aging Study using the regression formula as described by Van der Elst et al (Van der Elst et al; J Int Neuropsychol Soc 2005, 11 (3), pp 290-302).
All subjects within their corresponding groups (either Healthy Elderly n=20 or Impaired Elderly n=20) will be randomized in a double blind fashion to 1 of 4 treatment sequences, each sequence consisting of the following periods: A) Placebo+placebo; B) Roflumilast 100 mcg+placebo; C) Roflumilast […]+placebo and D) Roflumilast 1000 mcg (500+500 mcg) according to a computer-generated allocation schedule in a cross-over design. Between each of the four treatment sequences there will be a 12 days washout period.
Verbal learning task (VLT) The Rey VLT as modified by Riedel and colleagues (Riedel, Klaasen et al, Psychopharmacology (Berlin) 1999 Vol 141(4) pp 362-369) is used. This modified VLT maximizes the possibility of measuring enhancement rather than only impairment, by means of prolonging the list. The test consists of a list of 30 monosyllabic words (18 nouns and 12 adjectives). The words are shown on a computer screen for 1 second. Three trials with the same item sequence are presented. Each trial ends with a free recall of the words (immediate recall). Forty-five minutes after the first exposure, the subject is asked to recall as many words as possible (delayed recall). […] The words are shown on a computer screen for 2 seconds and subjects are asked to rate whether they were presented in the learning trial by a “yes/no” response. The inter-word interval is 2 seconds. 24 Hours after the immediate recall, subjects will return to the lab for a second delayed recall and recognition. […] EEG will be recorded during the immediate recall and the first recognition test on the test day. […]
An interim analysis has been performed based on the data of 9 subjects of the Impaired Elderly group and 4 subjects of the Healthy Elderly group. For this purpose, cognitive battery test scores (VLT, SMT, Stroop task and BL-VAS) and concentrations of roflumilast and roflumilast-N-oxide in plasma have been analysed and summarized by dose over each scheduled sampling time using descriptive statistics. […]

[4] = tested on: 60 to 80 years old subjects; assay: Bond-Lader Visual Analogue Scales (BL-VAS) in elderly subjects; format: in vivo, human; conditions: 45 min after the low dose
Description: Bond-Lader Visual Analogue Scales (BL-VAS): The BL-VAS (Bond A and Lader M, 1974; Br J Med Psycho) Vol 47, pp. 211-218) will be used in order to assess alertness, calmness, and contentedness. BL-VAS consists of 16 100 mm visual analogue scales anchored by antonyms (e.g. Alert-Drowsy, Lethargic-Energetic; etc) and be applied on testing Day 1 and 2 of each treatment period.
(§1) An interim analysis has been performed based on the data of 9 subjects of the Impaired Elderly group and 4 subjects of the Healthy Elderly group. For this purpose, cognitive battery test scores (VLT, SMT, Stroop task and BL-VAS) and concentrations of roflumilast and roflumilast-N-oxide in plasma have been analysed and summarized by dose over each scheduled sampling time using descriptive statistics.

[5] = format: in vivo, human; conditions: human, in vivo
Description: as §1

O=C(Nc1c(Cl)cncc1Cl)c1ccc(OC(F)F)c(OCC2CC2)c1 [roflumilast, N-(3,5-dichloropyridin-4-yl)-3-cyclopropylmethoxy-4-difluoromethoxybenzamide]
emetic potential [1]: tendency towards emetic potential | ERP P600 amplitude (in words) [2]: strongest increase of amplitude | ERP P600 amplitude (in words) ([2]; listed as Roflumilast): increased amplitude | ERP P600 (in words) ([2]; 300 mcg and 1000 mcg, FIG. 3): some effect | increase in number of correct words, 45 min delayed recall, compared to placebo ([3]; 100 mcg): 1.7 words | placebo-corrected fold-improvement ([3]; 100 mcg, 3rd trial, interim data elderly study): 1.16 | increase in number of correct words immediately recalled, compared to placebo ([3]; 100 mcg, after 3rd trial): 1.5 words | number of words on the 3rd trial ([3]; 100 mcg, elderly subjects): 10.28 words | increase in number of correct words, 45 min delayed recall, compared to placebo ([3]; 1000 mcg): 1.6 words | (subjective) alertness in comparison with placebo, BL-VAS scores [4]: significantly higher (subjective) alertness | exposure [5]: consistent with those previously reported
